Results on one molecule are retold here after patent US8853194B2, “Sterol derivatives and their synthesis and use” (priority 2009, dated 2014).

The subject of the data set is mouse hepatoma cells H22. On the procedure: Ascites mice S180 and H22 that had been vaccinated 7 days were sacrificed by cervical, from which ascites were obtained under sterile conditions respectively; the obtained ascites were washed twice with culture medium RPMI1640, and prepared to a 2×10^7/ml suspension in sterile physiological saline. The suspension of cell S180 was inoculated subcutaneously in the right axillas of 40 mice (0.1 ml/mouse) to produce solid tumor models; while the suspension of cell H22 was inoculated in abdominal cavities of 40 mice (0.2 ml/mouse) by conditional means under sterile conditions to produce ascites tumor models.
90 mice were randomly divided into 9 groups of 3 types, wherein the first type group was a normal control group, the second type groups were S180 solid tumor groups including a positive (cyclophosphamide) control group, a negative control group, a low dose group and a high dose group, and the third type groups were H22 ascites groups including a positive (cyclophosphamide) control group, a negative control group, a low dose group and a high dose group. There were 10 mice in each group. The experiment was repeated for three times.
[…], the negative control group was injected same volume of corn oil, and the positive control group was injected cyclophosphamide injection solution with the dose of 0.02 g/(Kg.d). The used injection volume was 0.1 ml/mouse and the injection was given as intraperitoneal injection every other day for 15 days. During the 15 days, general activities, fur, feces, etc. of the mice were daily observed. 24 hours after the last administration, mice that had been inoculated subcutaneously with S180 were sacrificed by cervical, from which tumors, thymus and spleen were taken out. After the last administration, mice that had been inoculated in abdominal cavities with H22 were conventionally bred continually, weighted and observed the survival time every day until all the mice in the negative group were dead.
24 hours after the inoculation of ascites, the weight and the amount of abdominal circumference of the mice in the groups of ascites models were measured. The drug administration and breeding were continued according to different groups, the weight and the abdominal circumference were measured daily until one day before death. The weight increase (g) and abdominal-circumference increase (cm) were calculated. The experiment started on the day of tumor inoculation and ended on the day when all the mice in the negative control group were dead; the time of deaths were recorded, and the survival extending rate was calculated. Survival Extending Rate(%)=[(mean survival days of treatment group−mean survival days of negative control group)/mean survival days of control group]×100%
After finishing the administration in all mice in the solid tumor group, the mice were sacrificed and their spleens and livers were weighed by electronic balance. The spleen index was equivalent to the spleen weight (mg) of mice in each group divided by the weight of the mice, while the liver index was equivalent to the liver weight […] divided by the weight (g) of the mice.

Setting [1] is: H22 ascites mice, low dose 16 mg/kg i.p. every other day for 15 days.

SMILES strings stand for the structures. Where two headings read alike, the source gives them in different places.

Regarding `CC(C)CCC[C@@H](C)[C@H]1CC[C@@H]2[C@]1(C)CC[C@H]1[C@]23C=C[C@]2(CC(=O)CC[C@]12C)OO3` [CL168-6, 5α,8α-cyclicobioxygen-6-cholesten-3-one], the “Abdominal circumference increase (cm)” value (H22 ascites mice, high dose 32 mg/kg i.p. every other day for 15 days) was 2.32 ± 0.71^(2)(4) cm. Under setting [1], the “Abdominal circumference increase (cm)” value is 2.84 ± 0.34^(2)(3) cm, the “Survival extending rate (%)” value is 37.11%, the “Survival time (day)” value is reported as 13.3 ± 1.77^(4) day and the “Weight increase (g)” value was 7.16 ± 1.39^(4) g. Besides, for the setting “mouse, in vivo, ip, 16 mg/kg”, the “Liver index (100 g/g)” value is reported as 4.9 ± 0.24^(1)(4) 100 g/g and the “Spleen index (mg/g)” value is 6.53 ± 1.29^(2)(4) mg/g. For the same molecule, under “mouse, in vivo, ip, 32 mg/kg”, the “Liver index (100 g/g)” value is on record as 5.19 ± 0.64^(2)(4) 100 g/g, the “Spleen index (mg/g)” value is reported as 5.76 ± 0.96^(2)(4) mg/g, the “Survival extending rate (%)” value came out at 51.55% and the “Survival time (day)” value is given as 14.7 ± 1.41^(4) day. Further, the “Weight increase (g)” value (mouse, in vivo, ip, 32 mg/kg) was 5.05 ± 1.88^(4) g.
